This is an account of results in paper PMC9344893 (ACS Medicinal Chemistry Letters, 2022).

Structures are written as SMILES.

For data set [1], the system named is SARS-CoV-2 isolate USA-WA1/2020.
The subject of another data set is A549/ACE2/TMPRSS2 cells. The data set can be described thus: Cell viability assay. It is filed as cell-based.
In another data set the target is SARS-CoV-2 Nsp14 MTase (Severe acute respiratory syndrome coronavirus 2, UniProt P0DTD1). It is filed as biochemical.
A further data set has as its system panel of 10 human MTases. The experiment in a line: Human MTase screening, panel as a whole. The settings on record: 10 μM. It is filed as biochemical.

In the case of `Nc1ncnn2c([C@@H]3O[C@H](CNS(=O)(=O)c4ccc5ccccc5c4)[C@@H](O)[C@H]3O)ccc12` [Compound 10], the “therapeutic index (TI = CC50/EC50)” value in data set [1] (A549 AT cells) is recorded as “greater than 139”.
As to `Nc1ncnc2c1ncn2[C@@H]1O[C@H](C[C@@H](N)CC[C@H](N)C(=O)O)[C@@H](O)[C@H]1O` [sinefungin, reference compound], in data set [1], the “antiviral activity (in words)” value was “failed to show any activity”.
Turning to `CC(=O)Nc1ncnc2c1ncn2[C@@H]1O[C@H](CNS(=O)(=O)c2ccc3ccccc3c2)[C@@H](OC(C)=O)[C@H]1OC(C)=O` [Compound 9], the “cytotoxicity at 100 μM (in words)” value with A549/ACE2/TMPRSS2 cells was “minimal cytotoxicity”.
For the molecule `Nc1ncnc2c1ncn2[C@@H]1O[C@H](CNS(=O)(=O)c2ccc3ccccc3c2)[C@@H](O)[C@H]1O` [Compound 3], the “fold more active than compound 1” value on SARS-CoV-2 Nsp14 MTase was more than 150 fold. In the data set with panel of 10 human MTases, the “inhibition of the set of human MTases (in words)” value is given as “minimal inhibition”.
Consider `CC(=O)O[C@@H]1[C@H](OC(C)=O)[C@@H](CNS(=O)(=O)c2ccc3ccccc3c2)O[C@H]1n1cnc2c(N)ncnc21` [Compound 8], for which, in the data set with A549/ACE2/TMPRSS2 cells, the “cytotoxicity at 100 μM (in words)” value was “minimal cytotoxicity”.
On to `Nc1ncnc2c1ncn2[C@@H]1O[C@H](CNS(=O)(=O)c2ccc3nc(Cl)ccc3c2)[C@@H](O)[C@H]1O` [Compound 5], for which the “fold reduction in inhibitory activity” value on SARS-CoV-2 Nsp14 MTase turned out to be 7 fold.
